Where two headings read alike, the source gives them in different places.
How the values were obtained:
[1] = system: pancreatic cell lines (AsPC-1, BxPC-3, Capan-2, CFPAC-1, and MiaPaCa-2); assay: In vitro cell growth inhibition by SN-38 exposure duration in a panel of pancreatic cell lines; details: SN-38 combined with 5-FU or oxaliplatin; prolonged vs short exposure
topoisomerase I = target: T1, topoisomerase I (Homo sapiens, UniProt P11387); details: metabolite formed by nonspecific carboxylesterases; cited from earlier work
T1 sequence (P11387 1-765): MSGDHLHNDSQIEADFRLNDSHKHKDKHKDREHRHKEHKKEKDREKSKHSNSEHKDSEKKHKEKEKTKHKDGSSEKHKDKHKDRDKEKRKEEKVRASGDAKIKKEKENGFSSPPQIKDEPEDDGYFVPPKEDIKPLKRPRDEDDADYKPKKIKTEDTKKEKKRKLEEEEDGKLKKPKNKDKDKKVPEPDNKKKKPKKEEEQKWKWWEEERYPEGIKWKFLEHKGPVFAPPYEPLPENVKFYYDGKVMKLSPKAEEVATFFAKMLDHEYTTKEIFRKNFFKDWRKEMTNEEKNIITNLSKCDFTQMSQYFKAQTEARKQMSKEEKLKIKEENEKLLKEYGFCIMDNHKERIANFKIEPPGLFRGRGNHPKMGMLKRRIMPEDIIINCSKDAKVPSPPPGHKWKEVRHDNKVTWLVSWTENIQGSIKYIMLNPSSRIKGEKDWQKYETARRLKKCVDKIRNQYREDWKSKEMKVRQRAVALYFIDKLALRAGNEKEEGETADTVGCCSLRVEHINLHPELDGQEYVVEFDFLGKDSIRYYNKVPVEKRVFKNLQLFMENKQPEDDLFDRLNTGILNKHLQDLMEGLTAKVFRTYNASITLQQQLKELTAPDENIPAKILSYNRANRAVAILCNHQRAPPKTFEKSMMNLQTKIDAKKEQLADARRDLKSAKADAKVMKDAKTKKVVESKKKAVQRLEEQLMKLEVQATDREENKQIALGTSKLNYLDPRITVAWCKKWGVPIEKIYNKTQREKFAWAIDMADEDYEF

[2] = system: PDX 19015 pancreatic cancer xenograft; assay: Patient-derived xenograft (PDX #19015) pancreatic cancer mouse efficacy model; type: in vivo; details: FIG. 6D, relative to the control group
Description: Treatment doses are indicated in the figure beside each treatment, and were given 4 times.
Significance was determined by ordinary 2-way analysis of variance (ANOVA). The regimens were administered on days 0, 7, 14 and 21 of the study.
Female CB.17 SCID mice were obtained from Roswell Park Cancer Institute (Buffalo, N.Y.), initially at 6-8 weeks of age. Per treatment group, 8 animals were treated, unless otherwise indicated. Tumor pieces were derived from donor mice and engrafted subcutaneously.
5-FU was administered intraperitoneally. […] Tolerability: Mouse weights were measured once weekly to monitor treatment tolerability.

[3] = cited from earlier work
[4] = Delayed dosing of oxaliplatin: tolerability, hematologic and liver toxicities in naive CD-1 mice; details: intravenous, pre-defined
Description: Tolerability studies were performed in naïve (non-tumor-bearing) mice. Three animals were treated per group.
Each drug was administered individually, or in combination. […] A single administration of each drug was given. Mouse body weights were measured daily for up to 2 weeks post-treatment.
Measurement of hematologic and liver toxicities: At the end of study, terminal bleeds were performed for each mouse via cardiac puncture. Hematologic function (blood cell count) was measured by Hemavet (Drew Scientific, Miami Lakes, Fla.), according to manufacturer's protocol. Liver function (enzyme levels) was measured by CatalystDx (Idexx Laboratories, Westbrook, Me.) according to the manufacturer's protocol.

[5] = Phase 3 study of the FOLFIRINOX combination; cited from earlier work

In the case of CCc1c2c(nc3ccc(O)cc13)-c1cc3c(c(=O)n1C2)COC(=O)[C@]3(O)CC [SN-38], the cell growth inhibition [1] is listed as “prolonged exposure also led to increased cell growth inhibition” and the “activity relative to irinotecan” value (topoisomerase I) is listed as 100-1000 fold.
In the case of CCc1c2c(nc3ccc(OC(=O)N4CCC(N5CCCCC5)CC4)cc13)-c1cc3c(c(=O)n1C2)COC(=O)[C@]3(O)CC [irinotecan, (S)-4,11-diethyl-3,4,12,14-tetrahydro-4-hydroxy-3,14-dioxo1H-pyrano[3′,4′: 6,7]-indolizino[1,2-b]quinolin-9-yl-[1,4′bipiperidine]-1′-carboxylate], the overall survival [2] is given as “No benefit of added 5-FU or oxaliplatin”, the “incidence of grade 4 neutropenia” value ([3]; patients heterozygous for UGT1A1*28 (6/7 genotype), single-agent irinotecan 350 mg/m^2 once every-3-weeks) is given as 12.5% and the “incidence of grade 4 neutropenia” value ([3]; patients homozygous for the UGT1A1*28 allele, single-agent irinotecan 350 mg/m^2 once every-3-weeks) is given as 50%. The “incidence of grade 4 neutropenia” value ([3]; patients homozygous for the wild-type allele (UGT1A1 6/6 genotype)) was “no grade 4 neutropenia was observed”.
In the case of O=C(O)C(=O)O.[NH-][C@@H]1CCCC[C@H]1[NH-].[Pt+2] [oxaliplatin], the maximum tolerated dose [4] is reported as 17 mg/kg.
In the case of FOLFIRINOX, the “incidence of most common Grade 3-4 adverse events (neutropenia, fatigue, vomiting, diarrhea, thrombocytopenia, sensory neuropathy, anemia, elevated ALT, thromboembolism, febrile neutropenia)” value [5] is listed as over 5%.
